Patent publication US20240252508A1, “Novel glucose uptake inhibitors for use in the treatment of cancer” (NOVELYEAST BV, priority 2021, published 2024)
Like-named read-outs stand apart in the source and are kept apart here.

What was measured:
[1] = test system: KMS-12-PE multiple myeloma cells; assay: Steady-state glucose consumption and lactate production in KMS-12-PE cells; format: cell-based, human; details: 25 μM, 1 mM glucose, 8 h
Protocol: (§1) The influence of WBC compounds on the steady-state glucose consumption rate was studied in the A549 adenocarcinoma and KMS-12-PE multiple myeloma cell lines. As such, different parameters needed to be optimized depending on whether cells were adherent or in suspension. As such, A549 cells were incubated at 125,000 cells/well in a 24-well plate in 300 μL RPMI medium for 8 h. For the KMS-12-PE cell line, 100,000 cells/well were incubated in 100 μL RPMI medium in a 96-well plate for 8 h. Medium was collected, spun down and HPLC-analyzed for measuring glucose and lactate levels. Metabolite levels were corrected for cell number, which always varied little over the span of 8 h. For every condition, at least 4 technical repeats were included.

wild type cells = assay: Zero-trans glucose uptake in wild type yeast cells; format: cell-based, S. cerevisiae; details: for Ki: Dixon plot analysis
Protocol: (§2) Zero-trans uptake of radioactively labeled [U-^14C]glucose, [U-^14C]fructose or [U-^14C]galactose by S. cerevisiae cells was determined in accordance with previous studies^44,66. Cells were grown on different carbon sources depending on the experiment. For measuring glucose uptake activity in the tps1Δ and tps1Δ hxtA strains (FIG. 1b,c), cells were grown on YP medium containing 3% glycerol (measurement of 10s). Typically, for compound characterization and kinetic studies in wild type and tps1Δ strains, cells were (pre)grown on Complete Synthetic medium supplemented with 2% galactose (measurement of 10s). In the experiments on the influence of hexokinase activity on the sugar uptake rate, the measurement duration was shortened to 5s and cells were always grown on YP medium containing 3% glycerol and 2% ethanol. After harvesting, cells were washed twice with ice-cold 25 mM MES-buffer pH 6, and resuspended in their respective medium without sugar to a final concentration of 45 mg (wet weight)/mL. The amount of added tracer was estimated to give a response close to at least 1000 counts per min in order to adequately counter background noise. Cells were first preincubated for 10 min at 30° C. with the compound to acclimate the cells to the temperature and to allow adequate interaction with the compound prior to uptake. Next, hexose sugar was mixed with the cell suspension, which was then incubated for 5 or 10 s, depending on the experiment, after which the cells were rapidly filtered over a glass microfiber filter (Whatman GF/C) and washed three times with ice-cold dH2O. The loaded filter was transferred to a scintillation vial containing 3 mL liquid scintillation cocktail (Ultima-Flo M, Perkin Elmer) and counted using the Hidex 300 SL. Three blank measurements per strain were typically included to account for background signal, for which the cells were first quenched before adding the radioactive label.

[2] = test system: A549 lung adenocarcinoma cells; assay: Steady-state glucose consumption and lactate production in A549 cells; format: cell-based, human; details: 25 μM, 1 mM glucose, 8 h
Protocol: as §1

wild type yeast cells = assay: General toxicity: growth of wild type yeast cells; format: cell-based, S. cerevisiae; details: 100 μM
Protocol: Maximal growth rates were determined after 2 days of growth in Complete Synthetic liquid medium.
Growth curves were made by measuring OD595 in a 96-well plate using the Multiskan™ FC Microplate Photometer (Thermo Fisher Scientific). Typically, for tps1Δ rescue experiments (FIG. 2b-e; FIG. 4a), cells were (pre)grown in Complete Synthetic medium containing 2% galactose.
Compounds were always added 10 min prior to glucose addition to ensure maximal interaction between the cells and compounds. Cells originating from the preculture were harvested, washed in medium without sugar, after which they were resuspended to an OD of 0.1 in 200 μL of the appropriate medium. At least three technical replicates were included per condition. OD595 was measured at 30° C. every 30 min with a 10-min shaking interval.

[3] = test system: U266 multiple myeloma cell line; assay: U266 proliferation (cell count); format: cell-based, human; details: 25 μM, 4 days, RPMI with 1 mM glucose
Protocol: a. Cell count of the U266 multiple myeloma cell line after 4 days of growth on RPMI medium with 1 mM glucose. Cells were treated with either DMSO or 25 μM of WBC-A, -15C, -4C or -11C. Glucose consumption (b.) or lactate secretion (c.) rates are shown for U266 cells incubated in RPMI medium supplemented with 1 mM glucose for 8 h.

tps1Δ cells = assay: Growth rescue of tps1Δ strain on glucose (growth curves, 2% galactose medium); format: cell-based, S. cerevisiae
Summary of the method: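 tps1Δ yeast pregrown in Complete Synthetic medium with 2% galactose, washed, resuspended to OD 0.1; compounds added 10 min before glucose. Growth followed as OD595 every 30 min at 30 °C in at least three technical replicates.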

[4] = test system: HXK2 hxk1Δ glk1Δ, hxk2Δ hxk1Δ glk1Δ and hxk2Δ hxk1Δ GLK1 cells; assay: Sugar uptake in yeast strains with and without hexokinase activity; format: cell-based, S. cerevisiae; details: for inhibition at 50 µM: Saccharomyces cerevisiae
Protocol: as §2

[5] = test system: A549 lung adenocarcinoma cells; assay: A549 cell proliferation / growth inhibition; format: cell-based, human
Summary of the method: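 A549 growth screened in RPMI with 1 mM glucose, compounds at 50 μM; cell number from counts of Hoechst-stained nuclei after 3 days. Growth curves also followed by IncuCyte phase-contrast confluency over 3–5 days (1000–1500 cells/well), DMSO ≤0.1%, ≥4 technical repeats.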

SMILES: Cc1nc(Sc2nnc3n2CCCCC3)c2c(-c3cccs3)csc2n1 [WBC-A]
- Glucose consumption and lactate production in KMS-12-PE cells [1]: did not cause inhibition
- Ki (wild type cells): 9.04 µM
- Ki (wild type cells; printed K′, read-out: K′i, glucose uptake, wild type cells): 36.6 µM
- Type of inhibition of glucose uptake, wild type cells (wild type cells; Lineweaver-Burk plot analysis): mixed type
- Glucose consumption and lactate production in A549 cells [2]: did not cause inhibition
- Growth of wild type yeast cells on glucose (2%) and on 3% glycerol+2% ethanol (wild type yeast cells): did not cause any growth inhibition at all
- Proliferation of U266 cell line [3]: inhibit proliferation
- Rescue of tps1Δ growth on galactose in the presence of 5 mM glucose (tps1Δ cells; 100 μM WBC-A, 5 mM glucose): rescued growth
- Rescue of tps1Δ growth in the presence of 7.5 mM glucose (tps1Δ cells; 100 μM WBC-A, 7.5 mM glucose): not able to restore growth
- Growth of tps1Δ cells on galactose in the absence of glucose (tps1Δ cells; 100 μM WBC-A, 2% galactose): significant growth delay
- Minimal rescue concentration for growth of tps1Δ cells on 2.5 mM glucose (tps1Δ cells; 2.5 mM glucose): 25 µM
- Fructose uptake at tracer concentration, hxk2Δ hxk1Δ GLK1 cells ([4]; 50 μM WBC-A): little inhibition of fructose uptake
- Glucose uptake at tracer concentration, hxk2Δ hxk1Δ GLK1 cells ([4]; 50 μM WBC-A): strong inhibition of glucose uptake
- Inhibition of glucose uptake rate, hxk1Δ hxk2Δ glk1Δ strain ([4]; 1 mM glucose): little further inhibition
- Inhibition of glucose uptake rate, strain expressing active Hxk2 ([4]; 1 mM glucose, HXK2 hxk1Δ glk1Δ): strong reduction in glucose uptake rate
- inhibition at 50 µM ([4]; read-out: Inhibition of fructose transport, strain expressing only GLK1): ~30%
- inhibition at 50 µM ([4]; read-out: Inhibition of fructose transport, strain only expressing HXK2): > 75%
- Potency in reducing maximal growth rate of A549 cells ([5]; 1 mM glucose, 6.25-50 μM): intermediate potency
- Proliferation of A549 cells in RPMI medium with 1 mM or 5 mM glucose ([5]; 12.5-50 μM WBC-A): dose-dependent inhibition of growth
